Publication PMC9870775, “Potent Dual Polymerase/Exonuclease Inhibitory Activities of Antioxidant Aminothiadiazoles Against the COVID-19 Omicron Virus: A Promising In Silico/In Vitro Repositioning Research Study” (Molecular Biotechnology, 2023)
Several values for one entry are separate records, joined by “and”; a condition that tells them apart may be missing. Equal values may be shown once. Read-outs that look alike come from different tables or passages of the source.

Test system: SARS-CoV-2 (Omicron variant, B.1.1.529.1/BA.1 sublineage)
Experiment: microbe, parasite or virus in culture
Format: cell-based
Details: for EC50 / EC90: Severe acute respiratory syndrome coronavirus 2, Vero C1008, 48 h; for EC90: read-out: 90% Reduction in Infectious Virus (EC90)
[1] = read-out: 50% Reduction in Infectious Virus (EC50)
[2] = read-out: 50% Reduction in Viral RNA Copy (EC50)
[3] = after starting administration and treatment

SMILES | 100% CPE Inhibitory Concentration (CPEIC100) | EC50 [1] [nM] | EC50 [2] [nM] | EC90 [nM] | Time to maximal effectiveness against the Omicron-variant particles [3] [h] | Time to maximal effectiveness against the Omicron-variant particles [h]
Nc1nnc(-c2cnc3cc(Cl)ccc3c2O)s1 [ChloViD2022, 3-(5-amino-1,3,4-thiadiazol-2-yl)-7-chloroquinolin-4-ol] | 1.09 µM and 1.09 ± 0.04 µM | 410 ± 20 | 440 ± 20 | 1530 ± 50 | 4 to 10 | 
Nc1nnc(CC(O)(Cc2nnc(N)s2)c2nnc(N)s2)s1 [CoViTris2022, 1,2,3-tris(5-amino-1,3,4-thiadiazol-2-yl)propan-2-ol] | 1.60 ± 0.06 µM | 690 ± 30 | 700 ± 40 | 2010 ± 70 |  | 4 to 10
CC(C)C(=O)OC[C@H]1O[C@@H](n2ccc(NO)nc2=O)[C@H](O)[C@@H]1O [Molnupiravir, molnupiravir, reference compound] | 6.25 µM and 6.25 ± 0.31 µM |  |  | 9160 ± 370 |  | 
Nc1nnc([C@H](O)[C@@H](O)c2nnc(N)s2)s1 [Taroxaz-26, (1R,2R)-1,2-bis(5-amino-1,3,4-thiadiazol-2-yl)ethane-1,2-diol] | 1.83 µM and 1.83 ± 0.07 µM | 730 ± 30 | 770 ± 40 | 2340 ± 80 | 4 to 10 | 
